Data published in patent US20240148040A1, “METHODS OF REDUCING EXERCISE-INDUCED INJURY OR ENHANCING MUSCLE RECOVERY AFTER EXERCISE” (intrinsic Medicine, Inc., priority 2020, published 2024).

Test system: CEBPB expression in LPS-stimulated THP-1 cells
Assay: CEBPB expression in nascent RNAs of LPS-stimulated THP-1 cells (nascent RNA sequencing)
Type: cell-based
Conditions: 10 ng/mL LPS and 250 μM 2′FL, CEBPB enhanced and upregulated
Experimental: THP-1 Cells were treated with 10 ng/mL LPS or 10 ng/mL LPS and 250 μM 2′F and extracted for nascent RNAs at 30 min and 24 hours. The nascent RNAs were sequenced and analyzed as described in Azofeifa et al. (2018), Genome Res. 28: 334-344; the contents of which are expressly incorporated by reference herein.

CC1O[C@@H](OC2[C@H](O[C@H]3C(O)C(O)C(O)O[C@H]3CO)OC(CO)[C@H](O)[C@@H]2O)C(O)[C@@H](O)[C@@H]1O (some centres unmarked) [2′FL, 2′-fucosyllactose]
CEBPB maximum enrichment score (nascent RNAs, 2′FL+LPS treated cells versus LPS alone) (30 min): 40 | CEBPB maximum enrichment score (nascent RNAs, 2′FL+LPS treated cells versus LPS alone) (24 hours): 20
